Target: T1, NK1-receptor (substance P-receptor) (Homo sapiens, UniProt P25103)
T1 construct: expressed in transfected cells; host or cells: IM-9 human lymphoblastoma cells
Test: NK1-receptor affinity: displacement of 125I-labelled substance P on human lymphoblastoma cells (IM-9) with cloned NK1-receptors
Assay type: binding
Method: The receptor affinity for the NK1 -receptor (substance P-receptor) was determined on human lymphoblastoma cells (IM-9) with cloned NK1 -receptors, by measuring the displacement of ^125 I-labelled substance p.

T1 sequence (P25103 whole entry): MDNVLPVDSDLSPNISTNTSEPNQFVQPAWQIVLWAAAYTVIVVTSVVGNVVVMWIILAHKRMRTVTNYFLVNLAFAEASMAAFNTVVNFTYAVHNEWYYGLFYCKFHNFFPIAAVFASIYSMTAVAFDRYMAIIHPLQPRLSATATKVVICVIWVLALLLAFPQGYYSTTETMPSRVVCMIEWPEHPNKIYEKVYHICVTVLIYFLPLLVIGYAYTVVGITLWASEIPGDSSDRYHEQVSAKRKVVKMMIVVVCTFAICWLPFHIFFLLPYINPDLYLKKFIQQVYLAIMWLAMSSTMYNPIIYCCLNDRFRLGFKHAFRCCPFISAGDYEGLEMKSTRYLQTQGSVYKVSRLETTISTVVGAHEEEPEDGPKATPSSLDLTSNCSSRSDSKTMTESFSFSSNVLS

IC50 [nM] | SMILES
0.4 | COc1cc2c(cc1OC)N(Cc1ccccc1Cl)C(=O)C(NC(=O)[C@@H]1C[C@@H](O)CN1C(=O)c1cn(C)c3ccccc13)C2 (single isomer, unassigned) [Example 1]
0.75 | CCc1ccccc1CN1C(=O)C(NC(=O)[C@@H]2C[C@@H](O)CN2C(=O)c2cn(C)c3ccccc23)Cc2cc(OC)c(OC)cc21 (single isomer, unassigned) [Example 6]
